The record followed here is PMC8550792, “Evolution of kinase polypharmacology across HSP90 drug discovery” (Cell Chemical Biology, 2021).

Molecules are shown by their SMILES. Substitutions are numbered along the chain they refer to.

Holding throughout (test): biochemical
Holding throughout (assay type): biochemical

For experiment [1], the target named is T1, 382 unique human kinases (Homo sapiens, UniProt Q13164).
T1 construct: purchased Reaction Biology (HotSpot contract assay)
The following applies: kinase ERK5/MAPK7, compound 10 uM; for remaining activity at 10 µM: read-out: % Enzyme Activity (relative to DMSO controls).

The target of experiment [2] is T2, 382 unique human kinases (Homo sapiens, UniProt Q9UKI8).
T2 construct: purchased Reaction Biology (HotSpot contract assay)
T2 sequence (Q9UKI8 1-766): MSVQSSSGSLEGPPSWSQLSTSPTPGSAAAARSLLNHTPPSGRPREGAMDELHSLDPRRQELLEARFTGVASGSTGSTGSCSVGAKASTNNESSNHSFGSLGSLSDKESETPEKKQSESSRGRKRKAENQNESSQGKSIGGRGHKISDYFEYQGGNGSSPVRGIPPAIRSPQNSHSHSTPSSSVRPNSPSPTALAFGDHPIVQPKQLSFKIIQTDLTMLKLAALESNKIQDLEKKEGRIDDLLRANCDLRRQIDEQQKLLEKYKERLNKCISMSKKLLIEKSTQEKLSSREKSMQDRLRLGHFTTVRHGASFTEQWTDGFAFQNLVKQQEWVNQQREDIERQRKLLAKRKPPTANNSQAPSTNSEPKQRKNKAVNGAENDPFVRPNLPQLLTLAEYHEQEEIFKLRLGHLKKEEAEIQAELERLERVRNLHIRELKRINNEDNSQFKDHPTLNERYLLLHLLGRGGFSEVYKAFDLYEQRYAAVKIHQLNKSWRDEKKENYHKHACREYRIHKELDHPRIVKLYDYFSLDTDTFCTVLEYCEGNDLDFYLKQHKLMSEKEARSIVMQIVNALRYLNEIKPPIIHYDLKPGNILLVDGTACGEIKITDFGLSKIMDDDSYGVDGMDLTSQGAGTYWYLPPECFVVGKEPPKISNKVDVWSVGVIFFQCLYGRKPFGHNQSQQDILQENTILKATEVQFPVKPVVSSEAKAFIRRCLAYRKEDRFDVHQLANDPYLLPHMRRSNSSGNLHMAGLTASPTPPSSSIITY
The following applies: TLK1, 10 uM; for remaining activity at 10 µM: read-out: % Enzyme Activity (relative to DMSO controls).

Experiment [3] deals with T3, 382 unique human kinases (Homo sapiens, UniProt Q9Y2H1).
T3 construct: purchased Reaction Biology (HotSpot contract assay)
The following applies: STK38L/NDR2, compound at 10 uM, duplicate values; for remaining activity at 10 µM: read-out: % Enzyme Activity (relative to DMSO controls).

For experiment [4], the target named is T4, 382 unique human kinases (Homo sapiens, UniProt Q9BZL6).
T4 construct: purchased Reaction Biology (HotSpot contract assay)
T4 sequence (Q9BZL6 1-878): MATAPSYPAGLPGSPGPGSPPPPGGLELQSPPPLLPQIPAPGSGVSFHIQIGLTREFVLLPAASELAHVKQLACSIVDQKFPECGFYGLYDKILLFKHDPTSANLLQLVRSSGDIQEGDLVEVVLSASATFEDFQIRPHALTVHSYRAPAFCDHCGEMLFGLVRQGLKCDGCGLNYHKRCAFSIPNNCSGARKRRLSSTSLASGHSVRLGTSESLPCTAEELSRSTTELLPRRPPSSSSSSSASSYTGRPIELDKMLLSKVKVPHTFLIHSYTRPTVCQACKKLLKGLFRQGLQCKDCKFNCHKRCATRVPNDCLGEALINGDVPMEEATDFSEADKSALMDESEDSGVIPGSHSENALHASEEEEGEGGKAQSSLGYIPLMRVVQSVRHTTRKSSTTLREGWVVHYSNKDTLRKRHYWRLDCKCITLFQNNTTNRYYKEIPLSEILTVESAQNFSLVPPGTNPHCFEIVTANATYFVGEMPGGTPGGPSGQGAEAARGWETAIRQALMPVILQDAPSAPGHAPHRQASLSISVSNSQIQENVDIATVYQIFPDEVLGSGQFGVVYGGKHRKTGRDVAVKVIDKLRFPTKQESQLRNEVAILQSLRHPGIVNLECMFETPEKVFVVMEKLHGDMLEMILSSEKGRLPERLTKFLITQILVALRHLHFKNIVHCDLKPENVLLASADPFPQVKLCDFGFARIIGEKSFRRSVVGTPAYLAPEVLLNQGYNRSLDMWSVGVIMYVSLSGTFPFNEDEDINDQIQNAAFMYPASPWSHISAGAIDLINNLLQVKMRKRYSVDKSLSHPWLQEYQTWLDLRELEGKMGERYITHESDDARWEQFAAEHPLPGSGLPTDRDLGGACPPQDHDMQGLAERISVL
The following applies: kinase PKD2/PRKD2, compound 10 uM; for remaining activity at 10 µM: read-out: % Enzyme Activity (relative to DMSO controls).

The target in experiment [5] is T5, 382 unique human kinases (Homo sapiens, UniProt P31751).
T5 construct: purchased Reaction Biology (HotSpot contract assay)
The following applies: kinase AKT2, compound 10 uM; for remaining activity at 10 µM: read-out: % Enzyme Activity (relative to DMSO controls).

The target of experiment [6] is T6, 382 unique human kinases (Homo sapiens, UniProt Q52WX2).
T6 construct: purchased Reaction Biology (HotSpot contract assay)
To be noted: SBK1, 10 uM; for remaining activity at 10 µM: read-out: % Enzyme Activity (relative to DMSO controls).

For experiment [7], the target named is T7, 382 unique human kinases (Homo sapiens, UniProt Q9BZL6, G870E).
T7 construct: purchased Reaction Biology (HotSpot contract assay)
T7 sequence (Q9BZL6 1-878 G870E): T4 sequence (Q9BZL6 1-878) with G870E
The following applies: PKD2 (G870E), [ATP] 30 µM, compound 10 uM; for remaining activity at 10 µM: read-out: % Enzyme Activity (relative to DMSO controls).

T5 sequence (P31751 whole entry): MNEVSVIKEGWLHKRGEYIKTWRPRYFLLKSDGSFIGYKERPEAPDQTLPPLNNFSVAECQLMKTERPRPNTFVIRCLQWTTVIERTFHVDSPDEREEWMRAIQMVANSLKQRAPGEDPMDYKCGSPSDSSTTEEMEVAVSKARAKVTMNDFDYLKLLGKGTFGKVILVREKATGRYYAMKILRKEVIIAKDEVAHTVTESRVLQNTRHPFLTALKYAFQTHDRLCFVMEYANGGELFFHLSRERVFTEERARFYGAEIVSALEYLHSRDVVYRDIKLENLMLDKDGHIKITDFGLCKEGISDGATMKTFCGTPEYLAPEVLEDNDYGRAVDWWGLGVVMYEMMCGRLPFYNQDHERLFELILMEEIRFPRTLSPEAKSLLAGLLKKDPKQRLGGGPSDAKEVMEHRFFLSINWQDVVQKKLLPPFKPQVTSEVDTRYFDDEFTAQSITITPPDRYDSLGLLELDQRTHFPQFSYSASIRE
T3 sequence (Q9Y2H1 whole entry): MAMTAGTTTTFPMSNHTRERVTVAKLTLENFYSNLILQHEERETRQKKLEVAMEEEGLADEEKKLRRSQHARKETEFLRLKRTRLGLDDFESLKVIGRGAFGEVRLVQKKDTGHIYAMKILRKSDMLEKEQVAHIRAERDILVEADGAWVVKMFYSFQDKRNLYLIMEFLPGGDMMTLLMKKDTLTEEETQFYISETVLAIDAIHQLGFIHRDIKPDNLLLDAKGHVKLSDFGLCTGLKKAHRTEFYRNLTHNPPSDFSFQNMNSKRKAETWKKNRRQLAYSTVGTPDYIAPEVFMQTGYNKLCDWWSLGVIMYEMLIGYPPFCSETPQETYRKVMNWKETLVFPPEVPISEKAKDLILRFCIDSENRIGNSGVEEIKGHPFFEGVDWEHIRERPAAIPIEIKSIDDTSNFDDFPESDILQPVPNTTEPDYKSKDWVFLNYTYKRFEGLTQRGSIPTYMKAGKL
T1 sequence (Q13164 whole entry): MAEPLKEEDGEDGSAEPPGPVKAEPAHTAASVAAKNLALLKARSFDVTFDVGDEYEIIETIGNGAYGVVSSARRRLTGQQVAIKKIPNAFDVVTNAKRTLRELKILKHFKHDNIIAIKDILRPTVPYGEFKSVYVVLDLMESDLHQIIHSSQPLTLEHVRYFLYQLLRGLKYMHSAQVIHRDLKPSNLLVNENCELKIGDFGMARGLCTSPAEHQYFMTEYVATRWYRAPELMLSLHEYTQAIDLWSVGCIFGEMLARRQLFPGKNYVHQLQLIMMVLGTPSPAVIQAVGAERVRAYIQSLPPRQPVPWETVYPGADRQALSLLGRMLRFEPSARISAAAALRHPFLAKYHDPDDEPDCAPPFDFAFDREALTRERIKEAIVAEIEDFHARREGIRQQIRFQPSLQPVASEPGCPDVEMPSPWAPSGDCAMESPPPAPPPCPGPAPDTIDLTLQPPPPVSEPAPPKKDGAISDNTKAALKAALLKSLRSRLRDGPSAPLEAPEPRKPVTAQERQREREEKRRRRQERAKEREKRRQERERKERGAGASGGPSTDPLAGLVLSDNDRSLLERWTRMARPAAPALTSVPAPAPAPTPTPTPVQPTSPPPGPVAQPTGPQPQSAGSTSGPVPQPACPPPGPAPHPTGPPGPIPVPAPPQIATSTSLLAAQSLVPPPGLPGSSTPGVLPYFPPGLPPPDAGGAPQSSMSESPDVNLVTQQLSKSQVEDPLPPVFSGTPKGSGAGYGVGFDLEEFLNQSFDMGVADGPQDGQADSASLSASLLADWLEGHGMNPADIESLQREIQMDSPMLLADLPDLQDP
T6 sequence (Q52WX2 whole entry): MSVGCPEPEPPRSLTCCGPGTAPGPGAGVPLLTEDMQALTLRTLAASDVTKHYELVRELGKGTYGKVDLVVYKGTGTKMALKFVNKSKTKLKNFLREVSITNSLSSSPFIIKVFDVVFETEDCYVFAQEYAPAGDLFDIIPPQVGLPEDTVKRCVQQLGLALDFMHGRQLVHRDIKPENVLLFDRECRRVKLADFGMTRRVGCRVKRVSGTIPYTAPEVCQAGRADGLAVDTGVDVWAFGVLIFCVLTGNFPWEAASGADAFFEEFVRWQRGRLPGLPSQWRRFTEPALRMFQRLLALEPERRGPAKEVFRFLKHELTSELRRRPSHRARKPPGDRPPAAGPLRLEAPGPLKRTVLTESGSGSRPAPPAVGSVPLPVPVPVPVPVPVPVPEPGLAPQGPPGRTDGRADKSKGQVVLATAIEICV

For `CC(C)c1cc(-c2n[nH]c(=O)n2-c2ccc3c(ccn3C)c2)c(O)cc1O` [Ganetespib (STA9090)], the remaining activity at 10 µM at 382 unique human kinases [1] was determined as 91.3%; on 382 unique human kinases [2], 65.8%; at 382 unique human kinases [3], 105%; on 382 unique human kinases [4], 87%; at 382 unique human kinases [5], 83.9%.

With `CC(C)c1cc(-c2n[nH]c(=O)n2-c2ccc3c(ccn3C)c2)c(O)cc1O` [Ganetespib], the remaining activity at 10 µM was 99.8% at 382 unique human kinases [6] and 59.7% at 382 unique human kinases [7].

As to `CCNC(=O)c1noc(-c2cc(C(C)C)c(O)cc2O)c1-c1ccc(CN2CCOCC2)cc1` [Luminespib (AUY-922)], the “% Enzyme Activity (relative to DMSO controls)” value on 382 unique human kinases [1] is recorded as 86.48%; at 382 unique human kinases [2], 84.15%; at 382 unique human kinases [3], 105.09%; on 382 unique human kinases [4], 97.40%; on 382 unique human kinases [5], 96.69%. Also, the remaining activity at 10 µM at 382 unique human kinases [1] was found to be 86.6%; at 382 unique human kinases [2] it was 86.2%; on 382 unique human kinases [3], 108%; on 382 unique human kinases [4] it was 99.3%; on 382 unique human kinases [5], 97.3%.

As for `CCNC(=O)c1noc(-c2cc(C(C)C)c(O)cc2O)c1-c1ccc(CN2CCOCC2)cc1` [Luminespib], the results for the “% Enzyme Activity (relative to DMSO controls)” value at 382 unique human kinases [6] and on 382 unique human kinases [7] were 93.40% and 103.84%, respectively. Moreover, the remaining activity at 10 µM at 382 unique human kinases [6] turned out to be 94.6%; at 382 unique human kinases [7], 104%.
